Experimental data from ChEMBL document CHEMBL3885861, “Open TG-GATES”.

Organism: Rattus norvegicus
Assay: Open TG-GATES - Regimen: Single
Format: toxicity, organism-based, Sprague-Dawley
Set-up: regimen Single, gender Male, age 6 weeks
Settings: in vivo, iv, route intravenous injection; for TBIL / TC / TG / TP / gamma-GTP / A/G / ALP / ALT / AST / BUN / CRE / Ca / Cl / DBIL / GLC / IP / K / LDH / Na / PL / RALB: tissue Plasma; for APTT / Bas / Eos / Fbg / Hb / Ht / Lym / MCH / MCHC / MCV / Mono / Neu / PT / Plat / RBC / Ret / WBC: tissue Blood; for KIDNEY_L / KIDNEY_R / KIDNEY_TOTAL: tissue Kidney; for LIVER: tissue Liver
[1] = 0 mg/kg, 24 h, dose level Control

C[C@@H]1C[C@@H]([C@H](O)CC2CC(=O)NC(=O)C2)C(=O)[C@@H](C)C1 [CYCLOHEXIMIDE]
TBIL [1]: 0.018 mg/dL | TC [1]: 75 mg/dL | TG [1]: 83.2 mg/dL | TP [1]: 5.6 g/dL | gamma-GTP [1]: 1.8 IU/L | TERMINAL_BW (1 mg/kg, 3 h, dose level Low): 216.3 g | APTT (1 mg/kg, 3 h, dose level Low): 20.1 s | Bas (1 mg/kg, 3 h, dose level Low): 0% | Eos (1 mg/kg, 3 h, dose level Low): 0.6% | Fbg (1 mg/kg, 3 h, dose level Low): 275.2 mg/dL | Hb (1 mg/kg, 3 h, dose level Low): 13.1 g/dL | Ht (1 mg/kg, 3 h, dose level Low): 38.5% | Lym (1 mg/kg, 3 h, dose level Low): 73.2% | MCH (1 mg/kg, 3 h, dose level Low): 21.7 pg | MCHC (1 mg/kg, 3 h, dose level Low): 34% | MCV (1 mg/kg, 3 h, dose level Low): 63.7 fL | Mono (1 mg/kg, 3 h, dose level Low): 2.4% | Neu (1 mg/kg, 3 h, dose level Low): 22.2% | PT (1 mg/kg, 3 h, dose level Low): 17.6 s | Plat (1 mg/kg, 3 h, dose level Low): 121.9 x10_4/uL | RBC (1 mg/kg, 3 h, dose level Low): 605.6 x10_4/ul | Ret (1 mg/kg, 3 h, dose level Low): 8.4% | WBC (1 mg/kg, 3 h, dose level Low): 174.9 x10_2/uL | KIDNEY_L (1 mg/kg, 3 h, dose level Low): 0.9 g | KIDNEY_R (1 mg/kg, 3 h, dose level Low): 0.9 g | KIDNEY_TOTAL (1 mg/kg, 3 h, dose level Low): 1.9 g | LIVER (1 mg/kg, 3 h, dose level Low): 9 g | A/G (1 mg/kg, 3 h, dose level Low): 1.4 | ALP (1 mg/kg, 3 h, dose level Low): 1054.4 IU/L | ALT (1 mg/kg, 3 h, dose level Low): 46 IU/L | AST (1 mg/kg, 3 h, dose level Low): 86 IU/L | BUN (1 mg/kg, 3 h, dose level Low): 23.6 mg/dL | CRE (1 mg/kg, 3 h, dose level Low): 0.1 mg/dL | Ca (1 mg/kg, 3 h, dose level Low): 9.6 mg/dL | Cl (1 mg/kg, 3 h, dose level Low): 107.4 meq/L | DBIL (1 mg/kg, 3 h, dose level Low): 0.002 mg/dL | GLC (1 mg/kg, 3 h, dose level Low): 145.6 mg/dL | IP (1 mg/kg, 3 h, dose level Low): 9.1 mg/dL | K (1 mg/kg, 3 h, dose level Low): 4.3 meq/L | LDH (1 mg/kg, 3 h, dose level Low): 174 IU/L | Na (1 mg/kg, 3 h, dose level Low): 142.2 meq/L | PL (1 mg/kg, 3 h, dose level Low): 78.8 mg/dL | RALB (1 mg/kg, 3 h, dose level Low): 2.8 g/dL | TBIL (1 mg/kg, 3 h, dose level Low): 0.016 mg/dL | TC (1 mg/kg, 3 h, dose level Low): 55.2 mg/dL | TG (1 mg/kg, 3 h, dose level Low): 61.6 mg/dL | TP (1 mg/kg, 3 h, dose level Low): 4.9 g/dL | gamma-GTP (1 mg/kg, 3 h, dose level Low): 1.6 IU/L | TERMINAL_BW (1 mg/kg, 6 h, dose level Low): 217.9 g | APTT (1 mg/kg, 6 h, dose level Low): 25.1 s | Bas (1 mg/kg, 6 h, dose level Low): 0% | Eos (1 mg/kg, 6 h, dose level Low): 1% | Fbg (1 mg/kg, 6 h, dose level Low): 276 mg/dL | Hb (1 mg/kg, 6 h, dose level Low): 13.2 g/dL | Ht (1 mg/kg, 6 h, dose level Low): 39.6% | Lym (1 mg/kg, 6 h, dose level Low): 65.2% | MCH (1 mg/kg, 6 h, dose level Low): 21.2 pg | MCHC (1 mg/kg, 6 h, dose level Low): 33.4% | MCV (1 mg/kg, 6 h, dose level Low): 63.4 fL | Mono (1 mg/kg, 6 h, dose level Low): 2.8% | Neu (1 mg/kg, 6 h, dose level Low): 30% | PT (1 mg/kg, 6 h, dose level Low): 19.7 s | Plat (1 mg/kg, 6 h, dose level Low): 107.5 x10_4/uL | RBC (1 mg/kg, 6 h, dose level Low): 625.2 x10_4/ul | Ret (1 mg/kg, 6 h, dose level Low): 7.7% | WBC (1 mg/kg, 6 h, dose level Low): 190 x10_2/uL | KIDNEY_L (1 mg/kg, 6 h, dose level Low): 0.9 g | KIDNEY_R (1 mg/kg, 6 h, dose level Low): 1 g | KIDNEY_TOTAL (1 mg/kg, 6 h, dose level Low): 1.9 g | LIVER (1 mg/kg, 6 h, dose level Low): 8.6 g | A/G (1 mg/kg, 6 h, dose level Low): 1.5 | ALP (1 mg/kg, 6 h, dose level Low): 1085.8 IU/L | ALT (1 mg/kg, 6 h, dose level Low): 45 IU/L | AST (1 mg/kg, 6 h, dose level Low): 82.6 IU/L | BUN (1 mg/kg, 6 h, dose level Low): 18.2 mg/dL | CRE (1 mg/kg, 6 h, dose level Low): 0.1 mg/dL | Ca (1 mg/kg, 6 h, dose level Low): 8.6 mg/dL | Cl (1 mg/kg, 6 h, dose level Low): 105.4 meq/L | DBIL (1 mg/kg, 6 h, dose level Low): 0.004 mg/dL | GLC (1 mg/kg, 6 h, dose level Low): 146.2 mg/dL | IP (1 mg/kg, 6 h, dose level Low): 9.4 mg/dL | K (1 mg/kg, 6 h, dose level Low): 3.6 meq/L | LDH (1 mg/kg, 6 h, dose level Low): 164.8 IU/L | Na (1 mg/kg, 6 h, dose level Low): 140.8 meq/L | PL (1 mg/kg, 6 h, dose level Low): 74 mg/dL | RALB (1 mg/kg, 6 h, dose level Low): 3 g/dL | TBIL (1 mg/kg, 6 h, dose level Low): 0.01 mg/dL | TC (1 mg/kg, 6 h, dose level Low): 42.8 mg/dL | TG (1 mg/kg, 6 h, dose level Low): 83.8 mg/dL | TP (1 mg/kg, 6 h, dose level Low): 5 g/dL | gamma-GTP (1 mg/kg, 6 h, dose level Low): 1.4 IU/L | TERMINAL_BW (1 mg/kg, 9 h, dose level Low): 216 g | APTT (1 mg/kg, 9 h, dose level Low): 26 s | Bas (1 mg/kg, 9 h, dose level Low): 0% | Eos (1 mg/kg, 9 h, dose level Low): 0% | Fbg (1 mg/kg, 9 h, dose level Low): 276.6 mg/dL | Hb (1 mg/kg, 9 h, dose level Low): 13.8 g/dL | Ht (1 mg/kg, 9 h, dose level Low): 41.2% | Lym (1 mg/kg, 9 h, dose level Low): 70.2% | MCH (1 mg/kg, 9 h, dose level Low): 21.1 pg | MCHC (1 mg/kg, 9 h, dose level Low): 33.4% | MCV (1 mg/kg, 9 h, dose level Low): 63.1 fL | Mono (1 mg/kg, 9 h, dose level Low): 1.8% | Neu (1 mg/kg, 9 h, dose level Low): 26.8% | PT (1 mg/kg, 9 h, dose level Low): 20.4 s | Plat (1 mg/kg, 9 h, dose level Low): 122.9 x10_4/uL | RBC (1 mg/kg, 9 h, dose level Low): 653.8 x10_4/ul | Ret (1 mg/kg, 9 h, dose level Low): 7% | WBC (1 mg/kg, 9 h, dose level Low): 187.2 x10_2/uL | KIDNEY_L (1 mg/kg, 9 h, dose level Low): 0.9 g | KIDNEY_R (1 mg/kg, 9 h, dose level Low): 0.9 g | KIDNEY_TOTAL (1 mg/kg, 9 h, dose level Low): 1.9 g | LIVER (1 mg/kg, 9 h, dose level Low): 8.9 g | A/G (1 mg/kg, 9 h, dose level Low): 1.4 | ALP (1 mg/kg, 9 h, dose level Low): 1037.4 IU/L | ALT (1 mg/kg, 9 h, dose level Low): 39.6 IU/L | AST (1 mg/kg, 9 h, dose level Low): 78.2 IU/L | BUN (1 mg/kg, 9 h, dose level Low): 16 mg/dL | CRE (1 mg/kg, 9 h, dose level Low): 0.1 mg/dL | Ca (1 mg/kg, 9 h, dose level Low): 9.5 mg/dL | Cl (1 mg/kg, 9 h, dose level Low): 106.2 meq/L | DBIL (1 mg/kg, 9 h, dose level Low): 0.008 mg/dL | GLC (1 mg/kg, 9 h, dose level Low): 162.6 mg/dL | IP (1 mg/kg, 9 h, dose level Low): 8.9 mg/dL | K (1 mg/kg, 9 h, dose level Low): 3.9 meq/L | LDH (1 mg/kg, 9 h, dose level Low): 205 IU/L | Na (1 mg/kg, 9 h, dose level Low): 140.4 meq/L | PL (1 mg/kg, 9 h, dose level Low): 90 mg/dL | RALB (1 mg/kg, 9 h, dose level Low): 2.8 g/dL | TBIL (1 mg/kg, 9 h, dose level Low): 0.022 mg/dL | TC (1 mg/kg, 9 h, dose level Low): 56.2 mg/dL | TG (1 mg/kg, 9 h, dose level Low): 38.4 mg/dL | TP (1 mg/kg, 9 h, dose level Low): 4.8 g/dL | gamma-GTP (1 mg/kg, 9 h, dose level Low): 1 IU/L | TERMINAL_BW (1 mg/kg, 24 h, dose level Low): 227.7 g | APTT (1 mg/kg, 24 h, dose level Low): 23.9 s | Bas (1 mg/kg, 24 h, dose level Low): 0% | Eos (1 mg/kg, 24 h, dose level Low): 0.2% | Fbg (1 mg/kg, 24 h, dose level Low): 334.6 mg/dL | Hb (1 mg/kg, 24 h, dose level Low): 13.2 g/dL | Ht (1 mg/kg, 24 h, dose level Low): 39.8% | Lym (1 mg/kg, 24 h, dose level Low): 85.4% | MCH (1 mg/kg, 24 h, dose level Low): 20.5 pg | MCHC (1 mg/kg, 24 h, dose level Low): 33.1% | MCV (1 mg/kg, 24 h, dose level Low): 61.8 fL | Mono (1 mg/kg, 24 h, dose level Low): 2% | Neu (1 mg/kg, 24 h, dose level Low): 10.6% | PT (1 mg/kg, 24 h, dose level Low): 16.8 s | Plat (1 mg/kg, 24 h, dose level Low): 115.4 x10_4/uL | RBC (1 mg/kg, 24 h, dose level Low): 643.4 x10_4/ul | Ret (1 mg/kg, 24 h, dose level Low): 6% | WBC (1 mg/kg, 24 h, dose level Low): 148.3 x10_2/uL | KIDNEY_L (1 mg/kg, 24 h, dose level Low): 1 g | KIDNEY_R (1 mg/kg, 24 h, dose level Low): 1 g | KIDNEY_TOTAL (1 mg/kg, 24 h, dose level Low): 2 g | LIVER (1 mg/kg, 24 h, dose level Low): 10.9 g | A/G (1 mg/kg, 24 h, dose level Low): 1.3 | ALP (1 mg/kg, 24 h, dose level Low): 1100.2 IU/L | ALT (1 mg/kg, 24 h, dose level Low): 31.2 IU/L | AST (1 mg/kg, 24 h, dose level Low): 53.4 IU/L | BUN (1 mg/kg, 24 h, dose level Low): 12.2 mg/dL | CRE (1 mg/kg, 24 h, dose level Low): 0.2 mg/dL | Ca (1 mg/kg, 24 h, dose level Low): 10.2 mg/dL | Cl (1 mg/kg, 24 h, dose level Low): 107.6 meq/L | DBIL (1 mg/kg, 24 h, dose level Low): 0.006 mg/dL | GLC (1 mg/kg, 24 h, dose level Low): 197.2 mg/dL | IP (1 mg/kg, 24 h, dose level Low): 6.6 mg/dL
